Data reported in a melting point compilation (Tetko et al.; mined from patent text by program, amines drawn as free bases though some values may be those of a salt).

| SMILES | melting point [°C] |
| --- | --- |
| COC(=O)c1ccccc1-c1ccc(CN2C(=O)c3ccccc3C2=O)cc1 | 148 to 150 |
| O=C1CCN(Cc2ccc3c(c2)OCO3)CC1C(c1ccccc1)c1ccccc1 (stereo not given) | 113 to 114 |
| CC1(COC2CC3C4CCC5=CC(=O)C=CC5(C)C4(F)C(O)CC3(C)C2(O)C(=O)CCl)CO1 (stereo not given) | 193 to 236 |
| CC(C)(C)OC(=O)N1CCOc2ccc(O)cc2S1(=O)=O | 143 |
| C#CCNC(=O)c1ccc2ccccc2c1 | 163 to 165 |
| CCOC1C(NC(=O)C(F)(F)F)CC(OC(=O)c2ccc([N+](=O)[O-])cc2)OC1C (stereo not given) | 148 to 150 |
| Cc1cn(C2CC(O)C(C#N)(CO)O2)c(=O)[nH]c1=O (stereo not given) | 238 to 242 |
| Cc1nc(CC(O)Cn2cnc3c2c(=O)n(C)c(=O)n3C)no1 (stereo not given) | 148 to 150 |
| Nc1c2c(nc3cc(F)ccc13)CCCC2O (stereo not given) | 203 to 206 |
| Cn1cccc1C(=O)NCCO | 78.1 |
| c1ccc2c(c1)CCc1nc(-c3ccncc3)oc1-2 | 129 to 130 |
| CC(C)Oc1c(C(=O)Nc2ccccc2)oc2ccc(Cl)cc12 | 82 to 83 |
| N#Cc1ccc(CN(O)Cc2ccc(C#N)cc2)cc1 | 172 to 175 |
| CN(C)C1CCC(O)(c2ccccc2Cc2ccccc2)CC1 (stereo not given) | 140 to 141 |
| COc1ccccc1Nc1ncc2cc(-c3c(Cl)cccc3Cl)c(=O)n(C)c2n1 | 200 to 201 |
| C=CCSc1nc(-c2ccc(OC)cc2)c(-c2ccc(OC)cc2)s1 | 57 to 58 |
| Cc1ccc2c(Cl)ccnc2c1NC(=O)c1c(Cl)cccc1Cl | 202 to 205 |
| CCCCC[C@H]1CC[C@H](c2cnc([C@H]3CC[C@H](C#N)CC3)nc2)CC1 | 110 |
| c1ncc2ncncc2n1 | 124 to 126 |
| COC(=O)C(C)(C)Cc1c(SC(C)(C)C)c2cc(OCc3ccc4ccccc4n3)ccc2n1Cc1ccc(Cl)cc1 | 166 to 167 |
| O=C(O)c1oc2ccc(Cl)cc2c1-c1ccccc1C(F)(F)F | 71 to 72 |
| CCOC(=O)c1[nH]c2c(C)ccc(Cl)c2c1C | 118 to 119 |
| c1ccc(Cn2ncc3c2-c2ccccc2C3(Cc2ccncc2)Cc2ccncc2)cc1 | 154 to 155 |
| COc1ccc(-c2nccc3c(CC(=O)O)cccc23)cc1 | 210 to 211 |
| O=S1C(c2cccc(-c3ccc(O)c(C45CC6CC(CC(C6)C4)C5)c3)n2)=CN=C1N1CCOCC1 (stereo not given) | 339 to 343 |

| SMILES | melting point [°C] |
| --- | --- |
| N#Cc1c(N)oc2c1CCCC2 | 179 |
| COC(=O)CCC#Cc1cc(Cl)ccc1NS(=O)(=O)c1ccc(C(C)=O)cc1 | 88 |
| O=C(Nc1cccc2c1C(=O)c1c-2n[nH]c1-c1ccc(C(=O)N2CCN(c3ccccn3)CC2)s1)NN1CCOCC1 | 201 to 202 |
| N#CC1(C#N)C2C=CC(C2)C1(Cl)Cl (stereo not given) | 161 |
| CC(C)(C)OC(=O)N1CC[C@H](c2ccc3c(c2)OCO3)[C@@H](OCc2ccc3ccccc3c2)C1 (racemic) | 128 to 129 |
| Cc1c(C)c2c(c(C)c1O)SC(C)(C)O2 | 62 to 64.5 |
| COc1ccc(-c2nc(C(=O)C(F)(F)F)[nH]c2-c2ccc(OC)cc2)cc1 | 191 to 192 |
| O=C1c2c(Cl)ccc(Cl)c2-c2nn(CCNCCO)c3ccc(NCCNCCO)c1c23 | 196 |
| COc1ccc(-c2oc3c(CC=C(C)C)c(OC4OC(CO)C(O)C(O)C4O)cc(O)c3c(=O)c2OC2OC(C)C(O)C(O)C2O)cc1 (stereo not given) | 231 to 233 |
| O=C(O)c1coc2c(Cl)cc(Cl)cc2c1=O | 196 |
| COc1c(CC#N)cccc1CC#N | 58 to 59.5 |
| CCOCc1nc2c(N)nc3ccccc3c2n1Cc1cc(-c2ccccc2)no1 | 215 to 216 |
| CN(C1CCCOc2ccccc21)S(C)(=O)=O (stereo not given) | 143 to 145 |
| COC(=O)C(=O)c1ccc(OCCCc2ccc3ccccc3c2)cc1 | 97 to 99 |
| CC(CS)C(=O)N1CCCC1C(=O)NC(C)C(=O)O (stereo not given) | 128 to 130 |
| Cc1cccc2[nH]c(=O)n(S(=O)(=O)c3ccc(Cl)cc3)c(=O)c12 | > 250 |
| CN(C)C(=O)N(Cc1ccccc1)C(=O)c1cccc(-c2nc(=O)c3ccccc3s2)n1 | 222 to 224 |
| O=C(O)CC1(CNC(=O)c2ccc(CO[N+](=O)[O-])cc2)CCCCC1 | 127 to 128 |
| C[C@H](Cn1cnnn1)n1cnc2cc3c(=O)n(C4CC4)nnc3cc2c1=O | 245 to 246 |
| CCOC(=O)CCCCSc1nc(-c2ccccc2)c(-c2ccccc2)[nH]1 | 87 to 89 |
| Cc1ccc2c(C(=O)NCCc3ccccc3)c(Cl)ccc2n1 | 170 to 172 |
| COC(=O)c1cn2c(-c3ccc4ccccc4c3)csc2n1 | 187 to 188 |
| Cc1cccc(CC(=O)O)c1OCCCc1cn(-c2ccc(C(F)(F)F)cn2)nc1C(C)C | 159 to 160 |
| CCCCOc1cc(/C=C(\OCC)C(=O)O)ccc1CCCc1ccc(OC)cc1 | 65 |
| CC(=O)N1CCc2c(c3ccc(-n4ccc(OCc5ccc(F)cn5)cc4=O)cc3n2C)C1 | 220 to 224 |

| SMILES | melting point [°C] |
| --- | --- |
| O=c1[nH]c2ncc(-c3cnc4[nH]cnc4c3)nc2n1CC1CCOCC1 | 367 to 370 |
| C#CCN1CC(=O)N(c2ccc(Cl)cc2C)C1=S | 99 to 102 |
| CCOc1ccccc1N(C[C@H]1CC[C@H](CN(C(=O)Nc2ccc(N(C)C)cc2)c2ccccc2OCC)CC1)C(=O)Nc1ccc(N(C)C)cc1 | 153 to 155 |
| CC(C)(CCCCCCCCCCC(C)(C)C(O)C(=O)O)C(O)C(=O)O (stereo not given) | 87 to 100 |
| CCN1CCN(Cn2nc(-c3ccsc3)c3c2-c2ccccc2C3)CC1 | 111 to 112 |
| CNS(=O)(=O)c1cc(S(=O)(=O)NC)c(C(Cl)=C(Cl)Cl)cc1N | 211 to 212 |
| CC(C)=CC(n1cncn1)C(C)(O)C(C)(C)C (stereo not given) | 115 to 116 |
| Cc1nc(Nc2ccccc2)sc1-c1ccnc(Nc2ccc(N3CCN(Cc4ccccc4)CC3)cc2)n1 | 227 to 229 |
| Nc1ncc(CCN2CCN(c3ccccc3)CC2)s1 | 185 to 189 |
| C[C@H]1[C@H](O)C2(CC2)C(=O)N1c1ccc(C#N)c(Cl)c1 | 169 to 172 |
| CCCCCCCCCCCCCCCCNC(=O)C=CC(=O)O | 46 to 49 |
| O=C(N[C@H](Cc1ccc(C(F)(F)F)cc1)[C@@H](O)c1ccc(F)cc1)c1cccc(Oc2ccccc2)c1 (racemic) | 144 to 145 |
| NC(=O)[C@@H]1[C@H]2CC[C@H](C2)[C@@H]1Nc1nc(Nc2ccc3c(c2)CCC(NCC(F)(F)F)CC3)ncc1Cl (stereo not given in full) | 218 |
| CCOC(=O)CCc1ccc2c(c1)CC(NC(=O)OC(C)(C)C)CC2 (stereo not given) | 100 to 102 |
| CC(C)c1ccc(C(=O)C(=O)c2ccccc2)c(C(C)C)c1OS(N)(=O)=O | 106 to 109 |
| Nc1ccccc1SC[C@H](NC(=O)OCc1ccccc1)C(=O)O | 161 to 162 |
| O=C(Nc1ccnn1-c1ccc(Cl)cc1Cl)c1cccnc1Cl | 162 to 164 |
| O=C(O)c1cc(=O)c2c(OCC(O)COc3ccc(Br)cc3)cccc2o1 (stereo not given) | 192 to 194 |
| Cc1ccc(-c2nc3ccccc3o2)cc1F | 121 to 122 |
| Clc1ccc(C2CC(n3ccnc3)c3ccccc3N2)cc1 (stereo not given) | 158 to 160 |
| O=C(Nc1ccccc1)O[C@H]1COC(c2cc3ccccc3[nH]2)=N[C@@H]1c1ccccc1 (racemic) | 166 |
| CC#CC1CCC(c2ccc(C3CCC(CCC)CC3)cc2)CC1 (stereo not given) | 134 |
| COCC1CN(c2ccc3cc(OCCC#N)ccc3c2)C(=O)O1 (stereo not given) | 110 to 112 |
| CSc1nc(C)c(Cc2ccc(Cl)cc2)c(=O)[nH]1 | 248 to 251 |
| COC1=CCC2=C(CCC3C2CCC2(C)C3CCC2N(C)CCCN(C)C)C1 (stereo not given) | 78 to 80 |

| SMILES | melting point [°C] |
| --- | --- |
| CCCCNC(=O)C(C)n1nnc2ccc(Oc3cc(F)c(C(F)(F)F)c(Cl)c3)cc21 (stereo not given) | 142 to 143 |
| CC(=O)c1ccc2c(c1)Sc1cc(Br)ccc1O2 | 143 to 145 |
| Fc1ccc(F)c(CN2CCNc3ncc(-c4cnc(N5CCOCC5)nc4)cc32)c1Cl | 250 to 251 |
| O=C(O)C1CCc2c(c3cccc(F)c3n2C(=O)c2ccccc2)C1 (stereo not given) | 250 to 251 |
| CC1(C)CCCC(C)(C)N1Cc1ccc2cc(NC(=O)c3ccc(-c4ccc(Cl)cc4)cc3)ccc2c1 | 244 to 246 |
| O=c1ssc(-c2cnccn2)c1CBr | 119 |
| CC(=O)NNc1nc(O)nc(-c2ccc(Cl)cc2)n1 | 250 |
| O=c1nc2n(c(=O)n1CCBr)CCCC2 | 64 to 66 |
| Cc1nc(N)c([N+](=O)[O-])cc1Cl | 214 to 215 |
| COc1ccc(CCCOS(C)(=O)=O)cc1OCc1coc(/C=C/c2ccccc2)n1 | 112 to 113 |
| CC(C)C[N+]([O-])=Cc1ccccc1 | 73 to 75 |
| CN(C)CCCOc1ccc(/C=C/C(=O)O)cc1 | 191 to 193 |
| COC(=O)C(C#N)=Cc1cc(-n2c(=O)cc(C(F)(F)F)n(C)c2=O)ccc1Cl | 187 to 188 |
| O=C(Nc1cc(-c2ccnc3c(C(=O)c4cccs4)cnn23)ccc1F)c1c(F)cccc1F | 198 to 200 |
| CCCCC(NC(=O)C(CC(C)C)NC(=O)c1cccc2ccccc12)C(=O)CSCc1ccco1 (stereo not given) | 81 to 83 |
| CNC(=O)/C(=N/OC)c1ccccc1COc1ccccc1C | 109 to 112 |
| COC(=O)C[C@@H]1C[C@@H](COc2ccc(-c3ccc(C(=N)NC(=O)OCc4ccccc4)cc3)cc2)N(c2ccccc2)C1=O | 157 to 159 |
| NCC1CCN(c2nc3ccccc3[nH]2)CC1 | 136 to 138 |
| N=C(NC(=O)Nc1ccccc1[N+](=O)[O-])c1ccccc1 | 144 to 146 |
| O=C(O)C=CC(=O)Nc1ccc2ncnc(Nc3cccc(Br)c3)c2c1 | 224 to 225 |
| Cc1ccc2[nH]c(=O)c(C#N)c(Cl)c2c1 | 264 |
| CCOC=C(C(=O)O)C(=O)C1CC1 | 108 to 113 |
| CC1(C)CC2(CC(C)(C)N1)OC1(CCCCCCCCCCC1)NC2=O | 97 |
| COc1cc(C(=O)N2CCN(C(=O)C3=Cc4cc(OCc5ccccc5)c(OCc5ccccc5)cc4CCC3)CC2)cc(OC)c1OC | 130 to 132 |
| C=CC1CC1(C(C)=O)C(=O)Nc1ccccc1 (stereo not given) | 104 to 105 |
